Experiments:
Assay type in all cases: cell-based
[1] = system: Human Follicle Dermal Papilla Cells (HFDPC); test: VEGF-ELISA (VEGF secretion)
Description: VEGF belongs to the signal molecules and stimulates the proliferation and migration of HFDPC. HFDPC generate more VEGF in the anagen phase. Thus, VEGF is an indication of the anagen phase of a hair. The detection of the VEGF protein was performed with the Human VEGF ELISA Kit from Invitrogen. The procedure was performed according to the protocol contained in the test kit with the cell supernatants previously frozen at -80°C. The removal of the cell culture supernatants was carried out on a 24-well scale. A higher value for the VEGF [pg/ml] (y-axis) means a higher value of detected VEGF. A higher VEGF value is an indication for a longer anagen phase. A longer anagen phase is an indication for more hair growth.
(§1) First, Human Follicle Dermal Papilla Cells (HFDPC) cells were thawed and seeded into collagen-coated cell culture flasks (T25). Then the medium was changed every 48 h. After 4 days the cells were trypsinized and seeded in T75 cell culture flask. In preparation for the final experiment, the cells were trypsinized and then counted with a cell counter. The cell concentration was then adjusted in a defined amount of medium followed by seeding of the cells in 96-well plates for the subsequent cell impedance measurements (5000 cells per well) or in 24-well plates (20000 cells per well). Subsequently, the cells were cultivated for 7 days in pure culture medium with regular medium changes after 2-3 days. After 7 days, the medium with the additives listed in Table 1 was added (designated as day 0), followed by a 3-week cultivation of the cells. The medium (and addition of fresh active substances) was changed every 2-3 days. […] The following examinations were carried out after 7, 14 and 21 days.
VEGF belongs to the signal molecules and stimulates the proliferation and migration of HFDPC. HFDPC generate more VEGF in the anagen phase. Thus VEGF is an indication of the anagen phase of a hair. […] The detection of the VEGF protein was performed with the Human VEGF ELISA Kit from invitrogen. The procedure was performed according to the protocol contained in the test kit with the cell supernatants previously frozen at -80°C. The removal of the cell culture supernatants was carried out on a 24-well scale.
VEGF was analyzed in the cell culture supernatant to check whether the active ingredients have an influence on cell function and, if so, whether they promote the release of VEGF (see figure).

[2] = system: Human Follicle Dermal Papilla Cells (HFDPC); test: Cell impedance test on proliferation and toxicity (xCELLigence, cell index)
Description: The influence of various substances on the growth of HDPFC was investigated with the aid of a cell impedance device (xCELLigence® RTCA DP).
To perform this study 5000 HFDPC (Passage: 5) per well were seeded in the 16-well wells, coated on 50 µL collagen with the addition of a maximum of 200 µl medium. The cells were grown for 96 h in pure cell culture medium. After 96 h the "pure" cell culture medium was completely removed and medium with the respective additives was added. A further change with the respective additives took place after 48 h.
The CI (y-axis) is thus a measure of cell proliferation, cell morphology and cell vitality (only vital, adherent HFDPC can proliferate) overtime (x-axis).
The investigation of cell proliferation (cell index CI) or the exact determination of the cell number was carried out in order to detect a possible cytotoxic effect of the substances after addition to the cells. At the beginning of the experiment, the cells were confluently seeded in order to be able to " focus " on the induction of hair growth afterwards.
The influence of various substances on the growth of HDPFC was investigated with the aid of a cell impedance device (xCELLigence® RTCA DP). The xCELLigence® system consists of a measuring unit and software that allows to follow the cell invasion and migration in real time without the influence of additional substances for cell visualization, which could potentially have an impact on the cells. The system measures the electrical impedance via microelectrodes integrated on the bottom of the tissue culture E-plate. It enables the monitoring of changes in adhesion, spreading and proliferation of different cell types in real time, based on the measured cell-electrode impedance. […] This index is composed as follows: CI = (Rtn −Rt0)/(Fi) [formula]
Rtn and Rt0 are the frequency-dependent electrode resistances (a component of the impedance), where Rt0 is measured at time T0 (without cells) and Rtn with cells present. Fi depends on the frequency used in the measurement. Thus CI is a quantitative measure of the number of cells in an electrode-containing well, when comparing the same cell types. Under the same physiological conditions, more cells adhered to the electrodes result in a higher Rtn value, which leads to a higher value for CI. In the absence of living cells (cell culture medium only) or in a suspension of dead cells, the cell index values are close to zero. After cellular attachment to the electrode, the measurement signal correlates linearly with the cell count throughout the experiment. This investigation was performed on a 96-well scale. To perform this study 5000 HFDPC (Passage: 5) per well were seeded in the 96-well wells, coated on 50 µL collagen with the addition of a maximum of 200 µl medium. The cells were grown for 96 h in pure cell culture medium. After 96 h the "pure" cell culture medium was completely removed and medium with the respective additives was added. A further change with the respective additives took place after 48 h. The CI is thus a measure of cell proliferation, cell morphology and cell vitality (only vital, adherent HFDPC can proliferate). (FIG 11)

[3] = system: Human Follicle Dermal Papilla Cells (HFDPC); test: Assessment of cell morphology by phase contrast microscopy; conditions: for cell adherence and proliferation (summary of morphology): diosgenin concentration-dependent
Description: as §1
Cell morphology was assessed through microscopic examination of the cells with an inverted microscope (phase contrast microscopy) at 10x and 20x primary magnification. The morphology of the cells provides information on the adherence behaviour of the cells,possible cell activation and cell stress. This examination was carried out on a 24-well scale.

[4] = system: Human Follicle Dermal Papilla Cells (HFDPC); test: Cell count after trypsination; conditions: for cell number compared to untreated cells: depending on concentration and time; for influence on the cell count (conclusion): over 3 weeks
Description: as §1
This investigation was performed on a 24-well scale.
To perform this investigation 5000 cells per well were seeded in the 96-wells with the addition of a maximum of 200 µl medium. The cells were grown for 7 days in pure cell culture medium. The medium was changed every 2-3 days, whereby 100 µl of old medium was removed and replaced by 100 µl of new medium. After 7 days the "pure" cell culture medium was completely removed and medium with the respective additives was added. The cells were then cultivated for 3 weeks with regular replacement of the medium with the respective additives. Cell counting after trypsinizing: The exact cell count of HFDPC was determined after trypsination of the cells in the respective well and uptake of the resulting cell pellets in medium. All pellets of one sample were combined in a cell culture vessel and then counted with a cell counter.

[5] = system: Human Follicle Dermal Papilla Cells (HFDPC); test: Immunofluorescent staining of vimentin; conditions: 2c (higher concentration)
[6] = 1c (lower concentration), after 3 weeks
[7] = one week after addition of the active ingredients
[8] = 250 µg/mL in medium, first 24 hours after addition

## CCCCC/C=C\C/C=C\C/C=C\C/C=C\CCCC(=O)[O-].[Na+] [arachidonate, Sodium Arachidonate]
[1]; [6]
  VEGF release: lower VEGF release
[2]; 50 µg/mL in medium
  cell index: increase the cell index
  toxic effect on the cells: does not have a toxic effect
[2]; 100µg/mL in medium
  toxic effect on the cells: has a toxic effect
[3]; second week of the experiment
  cell morphology / confluence: almost the same morphology
[3]; second week, higher concentration
  cell density: higher cell density
[4]; after 3 weeks, higher concentration, compared to untreated cells
  cell count: increase in HFDPC
[4]; entire duration of the experiment, independent of time and concentration
  cell count: did not negatively affect the cell count
[4]; over 2 weeks
  cell count: remained constant
[5]
  cell spreading and attachment to the cell culture substrate (vimentin staining): able to clearly spread and attach to the cell culture substrate

## C[C@@H]1CC[C@@]2(OC1)O[C@H]1C[C@H]3[C@@H]4CC=C5C[C@@H](O)CC[C@]5(C)[C@H]4CC[C@]3(C)[C@H]1[C@@H]2C [diosgenin, Diosgenin]
[1]; 1c (lower concentration), after 1 week
  VEGF release: lower VEGF release
[1]; [6]
  VEGF release: lower VEGF release
[2]; measured maximum concentration of 500 µg/mL
  toxic effect on the cells: not toxic
[3]; after 3 weeks, lower concentration
  cell morphology / confluence: resembled untreated cells
[3]; after 3 weeks
  cell adherence and proliferation (summary of morphology): very beneficial for cell adherence and proliferation
[3]; [7]
  cell morphology / confluence: greater confluence
[3]; second week of the experiment
  cell morphology / confluence: very high confluence in the well and elongated, typical growth
[4]; 1c
  number of HDFPC over time: remained constant after addition of Diosgenin 1c, but was increased compared to untreated cells
[4]; 2c, compared to untreated and Diosgenin 1c treated cells
  cell number over time: significant increase in cell number
[4]
  cell number compared to untreated cells: positive influence on the cell number
  influence on the cell count (conclusion): positive influence on the cell count
[5]
  cell spreading and attachment to the cell culture substrate (vimentin staining): able to clearly spread and attach to the cell culture substrate

## CCCCCC[C@@H](O)C/C=C\CCCCCCCC(=O)O [ricinoleic acid, 12-hydroxy-9-cis-octadecenoic acid]
[1]; 2.c (higher concentration), after 3 weeks
  VEGF release: lower VEGF release
[2]; 100µg/mL, after 24 h and 48 h addition
  cell index: remained constant
[2]; [8]
  cell index: positive influence on the cell index
  toxic effect on the cells: does not appear to have a toxic effect
[2]; 250 µg/mL, after 48h of repeated addition
  cell index: decreases
[3]; after 3 weeks, both concentrations
  cell morphology / confluence: confluent, very dense monolayer and an elongated cell shape
[3]; after 3 weeks
  cell adherence and proliferation (summary of morphology): very beneficial for cell adherence and proliferation
[3]; [7]
  cell morphology / confluence: greater confluence
[3]; second week of the experiment
  cell morphology / confluence: very high confluence in the well and elongated, typical growth
[4]; after 1 week, compared to untreated cells
  cell count: the difference was visible in both treated groups compared to untreated cells
[4]
  cell number compared to untreated cells: significant increase in cell count
  influence on the cell count (conclusion): positive influence on the cell count

Source: patent publication EP3895686A1, “NATURAL COMPOSITION FOR HAIR GROWTH STIMULATION AND HAIR LOSS PREVENTION AND TREATMENT” (FRAUNHOFER-GESELLSCHAFT zur Förderung der angewandten …, priority 2020, dated 2021)
